We go through three compounds from ChEMBL document CHEMBL5252641, “Design, synthesis, and evaluation of benzofuran-based chromenochalcones for antihyperglycemic and antidyslipidemic activities” (RSC Med Chem, 2023).

Activity calls are given as the source filed them. The calls are words filed in the database; no cut-off is given here.

For series [1], the system named is Syrian golden hamster. Nature of the series: Antidyslipidemic activity in Triton-induced hyperlipidemic Syrian golden hamster model assessed as increase in lecithin-cholesterol acyltransferase level at 50 mg/kg measured after 18 hrs. In kind it is functional, Mesocricetus auratus.
The test system of series [2] is Syrian golden hamster. Description: Antidyslipidemic activity in Triton-induced hyperlipidemic Syrian golden hamster model assessed as increase in post-heparin lipolytic activity at 50 mg/kg measured after 18 hrs. In kind it is functional, Mesocricetus auratus.
Series [3] has as its system L6. Description: Cytotoxicity against rat L6 cells assessed as reduction in cell viability at 5 to 100 uM incubated overnight by MTT assay. The following applies: l6, 100 µM, dose 5-100 µM. In kind it is toxicity, cell-based. (In general: Tetrazolium dyes change colour on reduction, which living cells bring about.)
The species named for series [4] is Mus musculus. Description: Antidyslipidemic activity in db/db mouse assessed as decrease in serum triglyceride level measured after 15 days relative to control. Type of series: functional. On the set-up: scale not given: the % may be the effect or the level left. The conditions noted are these: time 15 day.
Series [5] is filed under the species Mus musculus. Description: Antidyslipidemic activity in db/db mouse assessed as effect on body weight measured after 9 days. Type of series: functional, organism-based. The following applies: time 9.0 day.
The subject of series [6] is Mus musculus. Nature of the series: Antidiabetic activity in db/db mouse assessed as decrease in HOMA index at 30 mg/kg administered for 15 consecutive days by oral glucose tolerance test relative to control. In kind it is functional. On the set-up: scale not given: the % may be the effect or the level left. The following applies: time 15 day.
Series [7] has as its system Mus musculus. Description: Antidiabetic activity in db/db mouse assessed as decrease in serum insulin levels at 30 mg/kg administered for 15 consecutive days by oral glucose tolerance test relative to control. In kind it is functional. On the set-up: scale not given: the % may be the effect or the level left. The following applies: time 15 day.
The nature of series [8]: Antioxidant activity assessed as superoxide anion radical scavenging activity at 100 uM incubated for 30 mins by spectrophotometric analysis. In kind it is functional.
The species named for series [9] is Mus musculus. Nature of the series: Antidiabetic activity in db/db mouse assessed as increase in GLUT4 level incubated for 15 mins by Western blot analysis. Type of series: functional, organism-based. Background: Immunoblotting shows a protein as a band on a membrane.
The test system of series [10] is Syrian golden hamster. Nature of the series: Antidyslipidemic activity in Triton-induced hyperlipidemic Syrian golden hamster model assessed as decrease in PL level at 50 mg/kg measured after 18 hrs. Type of series: functional, Mesocricetus auratus. Details: scale not given: the % may be the effect or the level left.
In series [11] the test system is Rattus norvegicus. Description: Antidiabetic activity in streptozotocin induced hyperglycemic Wistar rat model assessed as improvement in blood glucose level at 100 mg/kg,po measured upto 24 hrs relative to control. Type of series: functional.
Series [12] concerns L6. Nature of the series: Induction of GLUT4myc translocation to rat L6 cells surface at 5 to 25 uM incubated for 20 mins followed by insulin stimulation by colorimetric assay. Type of series: functional, cell-based. The following applies: dose 5-25 µM.
The test system of series [13] is Mus musculus. Description: Antidiabetic activity in db/db mouse assessed as decrease in rise of postprandial hyperglycemia at 30 mg/kg measured after 10 days post glucose challenge by oral glucose tolerance test relative to control. In kind it is functional. Details: scale not given: the % may be the effect or the level left. The conditions noted are these: time 10 day.

In series [14] the test system is Mus musculus. Description: Antidiabetic activity in db/db mouse assessed as decrease in postprandial blood glucose at 30 mg/kg measured after 9 days. In kind it is functional, organism-based. The following applies: time 9.0 day.
For series [15], the system named is L6. Description: Induction of glucose uptake in rat L6 cells expressing GLUT4 myc epitopes at 5 uM incubated for 24 hrs by scintillation counting method relative to control. In kind it is functional.
Series [16] relates to Mus musculus. Description: Antidiabetic activity in db/db mouse assessed as decrease in rise of postprandial hyperglycemia at 30 mg/kg measured after 15 days post glucose challenge by oral glucose tolerance test relative to control. In kind it is functional. Details: scale not given: the % may be the effect or the level left. The following applies: time 15 day.
Series [17] deals with Syrian golden hamster. Nature of the series: Antidyslipidemic activity in Triton-induced hyperlipidemic Syrian golden hamster model assessed as decrease in triglyceride level at 50 mg/kg measured after 18 hrs. In kind it is functional, Mesocricetus auratus. Details: scale not given: the % may be the effect or the level left.
A short description of series [18]: Antioxidant activity assessed as hydroxyl radical scavenging activity at 100 uM incubated for 90 mins by spectrophotometric analysis. In kind it is functional.
For series [19], the species on record is Mus musculus. Description: Antidyslipidemic activity in db/db mouse assessed as increase in serum HDL-cholesterol level measured after 15 days relative to control. The conditions noted are these: time 15 day. Type of series: functional.
Series [20] deals with L6. Description: Induction of insulin stimulated glucose uptake in rat L6 cells expressing GLUT4 myc epitopes at 10 uM preincubated for 16 hrs followed by 3 hrs incubation under serum deprived medium prior to insulin stimulation for 20 mins. The following applies: time 1160.0 min. Type of series: functional, cell-based.
For series [21], the system named is Rattus norvegicus. Nature of the series: Antidiabetic activity in streptozotocin induced hyperglycemic Wistar rat model assessed as improvement in blood glucose level at 100 mg/kg,po measured upto 5 hrs relative to control. In kind it is functional.
Series [22] concerns Mus musculus. Description: Antidiabetic activity in db/db mouse assessed as decrease in fasting blood glucose level at 30 mg/kg administered for 15 consecutive days by oral glucose tolerance test relative to control. Type of series: functional. Details: scale not given: the % may be the effect or the level left. The following applies: time 15 day.
For series [23], the species on record is Mus musculus. Description: Antidiabetic activity in db/db mouse assessed as increase in Akt phosphorylation incubated for 15 mins by Western blot analysis. In kind it is functional, organism-based.
The subject of series [24] is L6. Description: Induction of glucose uptake in rat L6 cells expressing GLUT4 myc epitopes at 10 uM incubated for 24 hrs by scintillation counting method relative to control. In kind it is functional.
Series [25] relates to Syrian golden hamster. Description: Antidyslipidemic activity in Triton-induced hyperlipidemic Syrian golden hamster model assessed as decrease in total cholesterol level at 50 mg/kg measured after 18 hrs. Type of series: functional, Mesocricetus auratus. On the set-up: scale not given: the % may be the effect or the level left.
Series [26] is filed under the species Mus musculus. Nature of the series: Antidyslipidemic activity in db/db mouse assessed as decrease in serum cholesterol level measured after 15 days relative to control. Type of series: functional. Details: scale not given: the % may be the effect or the level left. The conditions noted are these: time 15 day.
Series [27] has as its system L6. Nature of the series: Induction of GLUT4myc translocation to rat L6 cells surface measured after 16 hrs by colorimetric assay. In kind it is functional, cell-based. The following applies: dose 5-25 µM.
Series [28] concerns L6. Nature of the series: Cytotoxicity against rat L6 cells assessed as reduction in cell viability at 10 uM by MTT assay. The following applies: l6, 10 µM. Type of series: toxicity, cell-based.

`CC1(C)C=Cc2ccc(O)c(C(=O)/C=C/c3ccc4oc(C(=O)c5ccccc5)cc4c3)c2O1`: the Activity with Syrian golden hamster [1] is recorded as 18%; in the series with Syrian golden hamster [2], 24%; in the series with L6 [3], “Non-Toxic”; in the series listed under Mus musculus [4] it was 26.5%; with Mus musculus [6], 39.8%; in the series on Mus musculus [7] it was 23.8%. Besides, the Activity in series [8] was determined as 18; in the series with Syrian golden hamster [10], 24%; in the series on Rattus norvegicus [11], 25.1%; in the series with Mus musculus [13], 18.2%; in the series with L6 [15] it was 82%; in the series on Mus musculus [16], 29.1%. For the same compound, the Activity is 18% with Syrian golden hamster [17]; 16 in [18]; 45.2% in the series filed under Mus musculus [19]; 22.8% with Rattus norvegicus [21]; 25% in the series on Mus musculus [22]; 249% with L6 [24]. The Activity in the series with Syrian golden hamster [25] was 21%; in the series filed under Mus musculus [26], 21%; with L6 [27], “Dose-Dependent Effect”. The outcome in the series filed under Mus musculus [5], in the series listed under Mus musculus [9], with L6 [12], in the series on Mus musculus [14] and in the series listed under Mus musculus [23] was Active. Besides, the result in the series on L6 [20] was inactive.

As to `COc1ccc(C(=O)c2cc3cc(/C=C/C(=O)c4c(O)ccc5c4OC(C)(C)C=C5)ccc3o2)cc1`, the Activity in the series with Syrian golden hamster [1] was 12%; in the series with Syrian golden hamster [2] it was 17%; in the series with L6 [3] it was “Non-Toxic”; in series [8], 10; in the series with Syrian golden hamster [10], 11%; in the series with Rattus norvegicus [11], 16.8%. The Activity with L6 [15] turned out to be 93%; in the series with Syrian golden hamster [17] it was 13%; in series [18], 7; with Rattus norvegicus [21], 18.7%; in the series with L6 [24] it was 220.5%; with Syrian golden hamster [25] it was 10%. Also, the Activity entry with L6 [27] is “Dose-Dependent Effect”. In addition, the outcome in the series with L6 [12] was Active. In addition, the outcome in the series with L6 [20] was inactive.

Regarding `CC1(C)C=Cc2ccc(O)c(C(=O)/C=C/c3ccc4occc4c3)c2O1`, the Activity in the series on Syrian golden hamster [1] is 18%; in the series on Syrian golden hamster [2], 21%; in [8], 18; in the series on Syrian golden hamster [10] it was 19%; in the series with L6 [28] it was “Toxic”; in the series on Syrian golden hamster [17], 11%. Besides, the Activity in [18] stood at 15; in the series with Syrian golden hamster [25], 14%.
